The assay concerns cultured hippocampal neurons. The assay can be described thus: neurotoxicity of combined exposure to Aβ and glutamate. The assay is classed as cell-based, rat. The note with it: 100 nM; 50 μM Aβ plus 20 μM glutamate, 48 h. The source says: Dissociated embryonic rat hippocampal cell cultures were established and maintained. All procedures conformed with the NIH Guide for the Care and Use of Laboratory Animals and were approved by the University of Kentucky Animal Care and Use Committee. Cultures were maintained on a polyethyleneimine-coated substrate in plastic 35-mm dishes or 96 wall plates (for cell survival studies) or glass-bottom 35-mm dishes (for [Ca^2+ ]i imaging studies). The cell density was ^~ 70-100 cells/mm^2. Cells were maintained in Eagle's minimum essential medium supplemented 10% with fetal bovine serum and containing 20 mM sodium pyruvate. […]
Neuronal survival was quantified by counting viable neurons in the same microscope fields (10x objective) immediately before experimental treatment and at time points after treatment. In addition, cells were grown in 96-well plates and Alamar blue fluorescence (Alamar Laboratories)was quantified by using a fluorescence plate reader. […] Viability of the remaining neurons was assessed by morphological criteria. […] Survival values were expressed as percentages of the initial number of neurons present before experimental treatment. […]
FIG. 13. […] Neuronal survival was assessed 48 h after treatment. […]

On to `C=C1[C@@H](C)[C@H]2[C@H](Cc3ccccc3)NC(=O)[C@]23[C@H](OC(C)=O)/C=C/[C@@](C)(O)C(=O)[C@@H](C)C/C=C/[C@H]3[C@@H]1O` [Cytochalasin D, cytochalasin D], for which the “effect on neurotoxicity of combined Aβ and glutamate” value was “attenuated significantly”.
